Eleven compounds from ChEMBL document CHEMBL1151548 (1995) can be followed below.

The subject of this assay is Mus musculus. Description: Antimalarial activity against Plasmodium berghei K173 in mice (Mus musculus) by peroral administration using peanut oil. The class given is functional.
On to `C[C@@H]1CC[C@H]2[C@@H](C)C(Nc3ccc(Br)cc3)O[C@@H]3O[C@@]4(C)CC[C@@H]1[C@]32OO4` (stereo partly specified), for which the SD50 turned out to be 2.7 mg/kg/day and the SD90 was determined as 9.1 mg/kg/day. The corresponding values for `Cc1ccc(NC2O[C@@H]3O[C@@]4(C)CC[C@H]5[C@H](C)CC[C@@H]([C@H]2C)[C@@]35OO4)cc1` (stereo partly specified) are 2.77 mg/kg/day and 6.08 mg/kg/day.

As for `C[C@@H]1CC[C@H]2[C@@H](C)C(Nc3cccc(C(=O)O)c3)O[C@@H]3O[C@@]4(C)CC[C@@H]1[C@]32OO4` (stereo partly specified), the SD50 was 2.76 mg/kg/day and the SD90 came to 8.23 mg/kg/day. The corresponding values for `C[C@@H]1CC[C@H]2[C@@H](C)C(Nc3cccc(Cl)c3)O[C@@H]3O[C@@]4(C)CC[C@@H]1[C@]32OO4` (stereo partly specified) are 1.62 mg/kg/day and 4.8 mg/kg/day. On the same counts, the results for `C[C@@H]1CC[C@H]2[C@@H](C)C(Nc3ccccc3)O[C@@H]3O[C@@]4(C)CC[C@@H]1[C@]32OO4` (stereo partly specified) are 2.63 mg/kg/day and 7.3 mg/kg/day. The compound `COc1ccc(NC2O[C@@H]3O[C@@]4(C)CC[C@H]5[C@H](C)CC[C@@H]([C@H]2C)[C@@]35OO4)cc1` (stereo partly specified) returned an SD50 of 3.5 mg/kg/day and an SD90 of 11.23 mg/kg/day. The compound `C[C@@H]1CC[C@H]2[C@@H](C)C(Nc3ccc(I)cc3)O[C@@H]3O[C@@]4(C)CC[C@@H]1[C@]32OO4` (stereo partly specified) came in with an SD50 of 4.56 mg/kg/day and an SD90 of 11.03 mg/kg/day.

Compound `C[C@@H]1CC[C@H]2[C@@H](C)C(Nc3ccc(C(=O)O)cc3)O[C@@H]3O[C@@]4(C)CC[C@@H]1[C@]32OO4` (stereo partly specified) had an SD50 of 1.36 mg/kg/day and an SD90 of 6.88 mg/kg/day. In turn, `C[C@@H]1CC[C@H]2[C@@H](C)C(Nc3ccc(Cl)cc3)O[C@@H]3O[C@@]4(C)CC[C@@H]1[C@]32OO4` (stereo partly specified) came in with an SD50 of 1.77 mg/kg/day and an SD90 of 4.5 mg/kg/day. The corresponding values for `C[C@@H]1CC[C@H]2[C@@H](C)C(Nc3cccc(Br)c3)O[C@@H]3O[C@@]4(C)CC[C@@H]1[C@]32OO4` (stereo partly specified) are 3.4 mg/kg/day and 5.38 mg/kg/day.

Regarding `C[C@@H]1CC[C@H]2[C@@H](C)C(=O)O[C@@H]3O[C@@]4(C)CC[C@@H]1[C@]32OO4` [ARTEMISININ], the SD50 stood at 5.13 mg/kg/day.
